Results from ChEMBL document CHEMBL3763052, “Novel N-acyl-carbazole derivatives as 5-HT7R antagonists” (Eur J Med Chem, 2016).

How the values were obtained:
[1] = Mean residential time in Sprague-Dawley rat at 10 mg/kg, iv by LC-MS/MS analysis; type: ADME, organism-based; conditions: in vivo
[2] = target: T1, 5-hydroxytryptamine receptor 7 (Homo sapiens, UniProt P34969); assay: Displacement of [3H]LSD from 5-HT7 receptor (unknown origin) expressed in CHO-K1 cells by liquid scintillation counting method; type: cell-based
[3] = target: T1, 5-hydroxytryptamine receptor 7; assay: Binding affinity to recombinant 5-HT7 receptor (unknown origin) after 1.5 hrs by radioligand displacement assay
[4] = target: T2, 5-hydroxytryptamine receptor 1A (Homo sapiens, UniProt P08908); assay: Binding affinity to recombinant 5-HT1A receptor (unknown origin) after 1.5 hrs by radioligand displacement assay
T2 sequence (P08908 whole entry): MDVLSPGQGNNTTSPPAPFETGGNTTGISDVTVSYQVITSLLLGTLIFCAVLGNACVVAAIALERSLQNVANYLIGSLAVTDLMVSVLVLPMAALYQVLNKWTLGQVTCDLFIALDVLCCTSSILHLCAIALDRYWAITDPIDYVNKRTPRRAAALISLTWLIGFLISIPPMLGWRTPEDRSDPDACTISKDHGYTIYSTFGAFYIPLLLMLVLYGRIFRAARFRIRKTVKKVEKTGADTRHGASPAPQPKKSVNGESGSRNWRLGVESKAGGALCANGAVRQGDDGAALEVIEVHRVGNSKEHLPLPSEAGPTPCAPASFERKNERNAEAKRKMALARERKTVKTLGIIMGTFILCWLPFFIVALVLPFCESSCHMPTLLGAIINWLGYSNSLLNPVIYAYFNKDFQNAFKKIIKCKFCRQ

[5] = target: 5-hydroxytryptamine receptor 1B (Homo sapiens, UniProt P28222); assay: Binding affinity to recombinant 5-HT1B receptor (unknown origin) after 1.5 hrs by radioligand displacement assay
[6] = target: 5-hydroxytryptamine receptor 1D (Homo sapiens, UniProt P28221); assay: Binding affinity to recombinant 5-HT1D receptor (unknown origin) after 1.5 hrs by radioligand displacement assay
[7] = target: 5-hydroxytryptamine receptor 2A (Homo sapiens, UniProt P28223); assay: Binding affinity to recombinant 5-HT2A receptor (unknown origin) after 1.5 hrs by radioligand displacement assay
[8] = target: 5-hydroxytryptamine receptor 2B (Homo sapiens, UniProt P41595); assay: Binding affinity to recombinant 5-HT2B receptor (unknown origin) after 1.5 hrs by radioligand displacement assay
[9] = target: T3, 5-hydroxytryptamine receptor 2C (Homo sapiens, UniProt P28335); assay: Binding affinity to recombinant 5-HT2C receptor (unknown origin) after 1.5 hrs by radioligand displacement assay
T3 sequence (P28335 whole entry): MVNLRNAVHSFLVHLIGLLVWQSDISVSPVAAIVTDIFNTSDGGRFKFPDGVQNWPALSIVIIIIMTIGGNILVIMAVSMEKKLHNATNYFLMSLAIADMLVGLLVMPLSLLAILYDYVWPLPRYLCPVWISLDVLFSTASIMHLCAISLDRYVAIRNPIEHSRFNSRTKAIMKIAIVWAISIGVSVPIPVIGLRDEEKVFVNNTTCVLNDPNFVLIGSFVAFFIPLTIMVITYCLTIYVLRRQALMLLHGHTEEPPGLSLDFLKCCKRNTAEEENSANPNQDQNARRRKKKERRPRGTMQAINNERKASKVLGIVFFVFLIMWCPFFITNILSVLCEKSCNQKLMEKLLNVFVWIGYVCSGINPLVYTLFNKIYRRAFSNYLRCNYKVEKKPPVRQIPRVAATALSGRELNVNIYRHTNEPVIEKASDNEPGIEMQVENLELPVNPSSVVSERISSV

[10] = target: T4, 5-hydroxytryptamine receptor 3A (Homo sapiens) (UniProt P46098); assay: Binding affinity to recombinant 5-HT3 receptor (unknown origin) at 10 uM after 1.5 hrs by radioligand displacement assay
T4 sequence (whole entry): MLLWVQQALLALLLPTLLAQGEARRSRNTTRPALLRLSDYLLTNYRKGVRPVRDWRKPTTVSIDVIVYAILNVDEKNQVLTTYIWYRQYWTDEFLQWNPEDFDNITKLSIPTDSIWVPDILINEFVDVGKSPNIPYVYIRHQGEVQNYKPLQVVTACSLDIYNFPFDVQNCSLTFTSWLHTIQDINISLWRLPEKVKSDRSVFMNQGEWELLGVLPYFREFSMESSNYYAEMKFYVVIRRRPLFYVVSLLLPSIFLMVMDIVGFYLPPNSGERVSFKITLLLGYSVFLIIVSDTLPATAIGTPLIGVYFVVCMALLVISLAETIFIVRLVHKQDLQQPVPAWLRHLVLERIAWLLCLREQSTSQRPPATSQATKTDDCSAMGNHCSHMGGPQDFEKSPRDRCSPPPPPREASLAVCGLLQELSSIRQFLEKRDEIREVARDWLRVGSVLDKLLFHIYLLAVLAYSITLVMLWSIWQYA

[11] = target: 5-hydroxytryptamine receptor 5A (Homo sapiens, UniProt P47898); assay: Binding affinity to recombinant 5-HT5 receptor (unknown origin) at 10 uM after 1.5 hrs by radioligand displacement assay
[12] = target: 5-hydroxytryptamine receptor 6 (Homo sapiens, UniProt P50406); assay: Binding affinity to recombinant 5-HT6 receptor (unknown origin) at 10 uM after 1.5 hrs by radioligand displacement assay
[13] = target: T1, 5-hydroxytryptamine receptor 7; assay: Antagonist activity at human 5-HT7 receptor expressed in HEK293 cells assessed as inhibition of 5-HT-induced cAMP production at 10 uM pretreated for 10 mins followed by stimulation with 5-HT for 30 mins by fluorescence analysis; type: functional, cell-based
[14] = target: T1, 5-hydroxytryptamine receptor 7; assay: Agonist activity at human 5-HT7 receptor expressed in HEK293 cells assessed as increase in cAMP level at 12.5 uM by fluorescence analysis relative to 5-CT; type: functional, cell-based
[15] = Metabolic stability in human liver microsomes assessed as compound remaining at 1 uM after 30 mins by LC-MS/MS in presence of NADPH; type: ADME; conditions: read-out: Stability
[16] = AUC (0 to infinity) in Sprague-Dawley rat at 10 mg/kg, iv by LC-MS/MS analysis; type: ADME, organism-based; design: dose 10 mg/kg, route intravenous, time infinity; conditions: in vivo
[17] = AUC (0 to infinity) in Sprague-Dawley rat at 10 mg/kg, po by LC-MS/MS analysis; type: ADME, organism-based; design: dose 10 mg/kg, route oral, time infinity; conditions: in vivo
[18] = AUC (0 to last) in Sprague-Dawley rat at 10 mg/kg, iv by LC-MS/MS analysis; type: ADME, organism-based; design: dose 10 mg/kg, time 0 - last, route intravenous; conditions: in vivo
[19] = AUC (0 to last) in Sprague-Dawley rat at 10 mg/kg, po by LC-MS/MS analysis; type: ADME, organism-based; design: dose 10 mg/kg, time 0 - last, route oral; conditions: in vivo
[20] = Terminal half life in Sprague-Dawley rat at 10 mg/kg, iv by LC-MS/MS analysis; type: ADME, organism-based; conditions: in vivo, read-out: beta t1/2
[21] = Terminal half life in Sprague-Dawley rat at 10 mg/kg, po by LC-MS/MS analysis; type: ADME, organism-based; conditions: in vivo, read-out: beta t1/2
[22] = Cmax in Sprague-Dawley rat at 10 mg/kg, po by LC-MS/MS analysis; type: ADME, organism-based; design: dose 10 mg/kg, route oral; conditions: in vivo
[23] = Tmax in Sprague-Dawley rat at 10 mg/kg, po by LC-MS/MS analysis; type: ADME, organism-based; conditions: in vivo
[24] = Clearance in Sprague-Dawley rat at 10 mg/kg, iv by LC-MS/MS analysis; type: ADME, organism-based; conditions: in vivo
[25] = Volume of distribution at steady state in Sprague-Dawley rat at 10 mg/kg, iv by LC-MS/MS analysis; type: ADME, organism-based; conditions: in vivo, read-out: Vdss
[26] = Plasma concentration in Sprague-Dawley rat at 10 mg/kg, iv after 2 hrs by LC-MS/MS analysis; type: ADME, organism-based
[27] = Plasma concentration in Sprague-Dawley rat at 10 mg/kg, po after 2 hrs by LC-MS/MS analysis; type: ADME, organism-based
[28] = Drug uptake in Sprague-Dawley rat brain at 10 mg/kg, iv after 2 hrs by LC-MS/MS analysis; type: ADME, organism-based; conditions: read-out: Drug uptake
[29] = Drug uptake in Sprague-Dawley rat brain at 10 mg/kg, po after 2 hrs by LC-MS/MS analysis; type: ADME, organism-based; conditions: read-out: Drug uptake
Mus musculus = assay: Antidepressant activity in ICR mouse assessed as immobility time at 30 mg/kg, iv administered 30 mins before testing by forced swim test (reference value: 159.1 sec); type: functional
[30] = Ratio of drug uptake in brain to plasma of Sprague-Dawley rat at 10 mg/kg, iv after 2 hrs by LC-MS/MS analysis; type: ADME, organism-based; conditions: read-out: BPR
[31] = Oral bioavailability in Sprague-Dawley rat at 10 mg/kg by LC-MS/MS analysis; type: ADME, organism-based; conditions: in vivo
[32] = Ratio of drug uptake in brain to plasma of Sprague-Dawley rat at 10 mg/kg, po after 2 hrs by LC-MS/MS analysis; type: ADME, organism-based; conditions: read-out: BPR

T1 sequence (P34969 whole entry): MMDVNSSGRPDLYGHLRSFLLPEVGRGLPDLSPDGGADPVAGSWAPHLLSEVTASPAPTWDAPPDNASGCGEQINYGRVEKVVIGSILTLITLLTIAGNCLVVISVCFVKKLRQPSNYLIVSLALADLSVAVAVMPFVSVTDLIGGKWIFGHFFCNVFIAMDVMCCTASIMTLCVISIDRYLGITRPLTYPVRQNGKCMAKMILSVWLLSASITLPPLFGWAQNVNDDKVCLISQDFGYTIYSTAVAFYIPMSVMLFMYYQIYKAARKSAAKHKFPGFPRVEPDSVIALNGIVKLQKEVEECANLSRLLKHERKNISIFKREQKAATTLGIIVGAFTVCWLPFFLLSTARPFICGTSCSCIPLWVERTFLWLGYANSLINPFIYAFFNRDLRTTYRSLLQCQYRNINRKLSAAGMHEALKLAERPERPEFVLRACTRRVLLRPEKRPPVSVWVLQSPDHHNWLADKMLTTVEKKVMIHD
Chain of 5-hydroxytryptamine receptor 2B (P41595 whole entry): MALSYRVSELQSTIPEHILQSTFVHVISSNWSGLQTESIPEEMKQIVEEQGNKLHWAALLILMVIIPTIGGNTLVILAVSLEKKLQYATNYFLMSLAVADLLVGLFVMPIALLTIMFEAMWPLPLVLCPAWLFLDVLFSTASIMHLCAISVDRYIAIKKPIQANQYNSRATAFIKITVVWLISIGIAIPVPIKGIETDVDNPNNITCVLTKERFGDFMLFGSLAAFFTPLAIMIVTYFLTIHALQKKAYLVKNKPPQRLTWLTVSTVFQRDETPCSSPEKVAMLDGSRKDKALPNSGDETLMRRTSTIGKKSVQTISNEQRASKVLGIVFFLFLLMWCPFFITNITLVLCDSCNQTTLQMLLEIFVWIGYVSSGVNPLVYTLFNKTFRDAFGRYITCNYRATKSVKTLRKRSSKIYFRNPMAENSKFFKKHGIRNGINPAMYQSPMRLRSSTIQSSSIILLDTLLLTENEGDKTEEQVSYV
Chain of 5-hydroxytryptamine receptor 5A (P47898 whole entry): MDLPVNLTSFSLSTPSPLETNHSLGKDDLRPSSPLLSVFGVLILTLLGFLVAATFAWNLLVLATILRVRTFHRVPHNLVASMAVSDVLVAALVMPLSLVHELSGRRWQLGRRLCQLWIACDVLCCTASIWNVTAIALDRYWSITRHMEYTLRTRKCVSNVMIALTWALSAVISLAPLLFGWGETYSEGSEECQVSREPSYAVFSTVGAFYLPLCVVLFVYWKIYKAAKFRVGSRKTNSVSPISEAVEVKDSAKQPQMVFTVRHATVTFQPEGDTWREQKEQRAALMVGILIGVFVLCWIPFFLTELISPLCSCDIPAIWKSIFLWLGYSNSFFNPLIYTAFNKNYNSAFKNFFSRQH
Chain of 5-hydroxytryptamine receptor 2A (P28223 whole entry): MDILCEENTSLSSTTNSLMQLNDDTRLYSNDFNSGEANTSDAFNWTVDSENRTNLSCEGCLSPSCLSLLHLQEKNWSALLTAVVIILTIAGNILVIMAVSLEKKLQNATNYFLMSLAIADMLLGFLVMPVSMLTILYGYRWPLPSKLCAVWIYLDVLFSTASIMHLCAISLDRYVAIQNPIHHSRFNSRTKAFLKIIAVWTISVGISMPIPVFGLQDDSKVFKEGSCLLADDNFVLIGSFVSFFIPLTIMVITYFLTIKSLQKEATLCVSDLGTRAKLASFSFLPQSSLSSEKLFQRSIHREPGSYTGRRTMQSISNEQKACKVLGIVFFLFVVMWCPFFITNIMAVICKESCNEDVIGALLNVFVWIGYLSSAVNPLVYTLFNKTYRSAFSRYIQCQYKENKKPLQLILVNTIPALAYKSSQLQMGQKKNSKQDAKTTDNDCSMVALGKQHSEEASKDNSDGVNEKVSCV
Chain of 5-hydroxytryptamine receptor 1B (P28222 whole entry): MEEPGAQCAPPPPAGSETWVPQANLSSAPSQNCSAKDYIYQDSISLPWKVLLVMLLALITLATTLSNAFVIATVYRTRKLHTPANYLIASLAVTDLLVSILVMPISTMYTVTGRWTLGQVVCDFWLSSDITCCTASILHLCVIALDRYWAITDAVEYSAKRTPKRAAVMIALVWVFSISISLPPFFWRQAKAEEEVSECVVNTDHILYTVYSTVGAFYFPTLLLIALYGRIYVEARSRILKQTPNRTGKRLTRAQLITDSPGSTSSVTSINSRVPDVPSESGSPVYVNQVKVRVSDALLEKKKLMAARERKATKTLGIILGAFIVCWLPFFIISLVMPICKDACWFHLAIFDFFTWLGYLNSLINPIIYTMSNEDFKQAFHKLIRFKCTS
Chain of 5-hydroxytryptamine receptor 6 (P50406 whole entry): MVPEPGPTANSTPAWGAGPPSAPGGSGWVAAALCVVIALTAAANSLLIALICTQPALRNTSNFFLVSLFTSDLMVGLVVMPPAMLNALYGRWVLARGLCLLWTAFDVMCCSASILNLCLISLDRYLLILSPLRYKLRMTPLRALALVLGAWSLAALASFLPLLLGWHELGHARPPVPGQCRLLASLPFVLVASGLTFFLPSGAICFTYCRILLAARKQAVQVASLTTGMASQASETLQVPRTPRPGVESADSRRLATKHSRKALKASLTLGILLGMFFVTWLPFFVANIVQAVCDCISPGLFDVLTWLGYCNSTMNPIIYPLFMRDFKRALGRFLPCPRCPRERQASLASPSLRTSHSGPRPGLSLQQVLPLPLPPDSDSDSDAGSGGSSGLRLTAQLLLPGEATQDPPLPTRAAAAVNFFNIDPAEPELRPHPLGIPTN
Chain of 5-hydroxytryptamine receptor 1D (P28221 whole entry): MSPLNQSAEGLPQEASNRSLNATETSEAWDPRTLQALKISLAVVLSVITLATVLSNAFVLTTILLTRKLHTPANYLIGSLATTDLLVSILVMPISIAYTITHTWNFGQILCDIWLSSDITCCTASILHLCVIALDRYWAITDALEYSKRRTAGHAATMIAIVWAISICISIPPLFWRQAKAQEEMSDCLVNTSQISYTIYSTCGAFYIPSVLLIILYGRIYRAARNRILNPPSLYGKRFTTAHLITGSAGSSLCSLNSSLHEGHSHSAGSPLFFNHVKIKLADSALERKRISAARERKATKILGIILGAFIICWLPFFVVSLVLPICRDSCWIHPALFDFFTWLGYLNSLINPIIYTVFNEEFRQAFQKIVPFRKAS

COc1ccccc1N1CCN(CCCCCC(=O)n2c3ccccc3c3ccccc32)CC1.Cl
MRT [1]: 2.81 h | Ki [2]: 74 nM | Ki [3]: 74 nM | Ki [4]: 549 nM | Ki [5]: 845 nM | Ki [6]: 1280 nM | Ki [7]: 1260 nM | Ki [8]: 419 nM | Ki [9]: 588 nM | inhibition [10]: 18% | inhibition [11]: 34% | inhibition [12]: 31% | inhibition [13]: 75.2% | Activity [14]: 22.2% | remaining at 0.5 h, 1 µM [15]: 50.8% | AUC(0-inf) [16]: 1470 ng·h/mL | AUC(0-inf) [17]: 998 ng·h/mL | AUC(0-t) [18]: 1170 ng·h/mL | AUC(0-t) [19]: 561 ng·h/mL | half-life [20]: 3.32 h | half-life [21]: 6.62 h | Cmax [22]: 160 ng/mL | Tmax [23]: 3.57 h | clearance [24]: 114 mL/min/kg | Vd [25]: 33.5 L/kg | concentration at 2 h [26]: 210 ng/mL | concentration at 2 h [27]: 70 ng/mL | concentration at 2 h [28]: 268 ng/mL | concentration at 2 h [29]: 1530 ng/mL | Time (Mus musculus): 118.9 s | Kp at 2 h [30]: 1.23 | bioavailability [31]: 67.8% | Kp at 2 h [32]: 25.5
